Data on 33 compounds can be found in patent US8507538B2, “Selective heterocyclic sphingosine 1 phosphate receptor modulators” (Receptos, Inc., priority 2009, dated 2013).

Structures can show the parent of a compound that is named as a salt. Where two headings read alike, the source gives them in different places. Where only a bound is given, the exact number is not on record here.

The subject of assay [1] is CD4 or CD8 positive T cells. The assay can be described thus: Lymphopenia in rats. It is filed as in vivo. Particulars: rat, 24 h after a 0.2 mg/kg single dose. How it is done: In rats: Female rats (Simonsen Laboratories, Gilroy Calif.) were housed in an ALAAC accredited facility and the research was approved by the facilities Institutional Animal Care and Use Committee (IACUC). The animals were acclimated to the laboratory for at least 5 days prior to initiation of experiments. Rats (n=3/compound/time-point) were dosed by oral gavage with 1 mg/kg compound formulated in a vehicle consisting of 5% DMSO/5% Tween 20 and 90% 0.1N HCL. Control rats were dosed PO with the vehicle. Whole blood was collected from isoflurane anesthetized rats via the retro-orbital sinus and terminal samples were collected by cardiac puncture into EDTA. Whole blood was incubated with mouse anti-rat CD32 (BD #550271), PE-mouse anti-rat CD45R/B220 (BD #554881), PECy5-mouse anti-rat CD4 (BD #554839), and APC-mouse anti-rat CD8a (eBioscience #17-0084) for 30 minutes on ice. Red blood cells were lysed using BD Pharm. Lyse Lysing buffer (#555899) and white blood cells were analyzed with a BD FACSArray. Lymphopenia was expressed as the % of white blood cells that were CD4 or CD8 positive T cells. The overall lymphopenia response over 24 h was estimated by calculating the area under the effect curve (AUEC) using the linear trapezoidal rule. In some experiments, total lymphocyte counts were determined using a standard impediance based veterinary hematology analyzer (IDEXX Preclinical Research Services, Sacramento, Calif.).
The percentage of lymphopenia at 24 h after a 0.2 mg/kg single dose regiment is reported. […] N/A is not available.

For assay [2], the system named is CD4 or CD8 positive T cells. The assay is described as follows: Lymphopenia in rats. Conditions: rat, at 24 h after a 3-5 day dosing regimen. Format: in vivo.
Another assay concerns the target T1, S1P5 (Homo sapiens, UniProt Q9H228).
T1 construct: Tango fusion (own knowledge: TEV protease site + GAL4-VP16 transcription factor fused to the receptor's C-terminus); host or cells: Tango bla U2OS
The assay can be described thus: Specificity over other S1P receptors: S1P5-bla TANGO U2OS. It is filed as cell-based. Conditions: without Forskolin, FreeStyle Expression medium; read-out: S1P5 agonist value (EC50). Here is the method:
Cells were seeded into 384-well black wall/clear bottom plates at 10^4 cells/well/19.5 μl assay media (DMEM-phenol free, 0.5% charcoal/dextran stripped serum, 2 mM glutamine, 0.1 mM NEAA, 1 mM Na-Pyruvate, 25 mM Hepes) and incubated for 18 hrs at 37° C. in 5% CO2. Dose response curves (10-point) were generated in 10 mM Hepes, 0.1% Pluronic F127, in the presence of Forskolin. Cells were treated with 0.5 μl compound in the presence of 2 μM Forskolin for 4 hrs at 37° C. The FRET-based β-lactamase fluorescent substrate (LiveBLAzer™ FRET B/G Loading Kit CC4-AM; Invitrogen) was prepared according to manufacturer's directions, and incubated with cells for 2 hrs at room temperature. Plates were read at Ex:410/Em:458 and Ex:410/Em:522, and the response ratio determined. Data was analyzed by non-linear regression to determine the EC50 for inhibition of Forskolin induced cAMP.
To assess compound specificity on other S1P receptors the following cell lines were used: S1P2 CRE-bla CHOK1, S1P3-Gα15 NFAT-bla HEK293T (Invitrogen), S1P4-bla TANGO U2OS (Invitrogen), S1P5-bla TANGO U2OS (Invitrogen). The same assay set up for S1P1 was used but without Forskolin. S1P4 and S1P5 assays were performed in FreeStyle Expression medium (Invitrogen). S1P5 cells were incubated for 48 hrs in prior to treatment with compound.

For another assay, the target named is S1P1/EDG1 (Homo sapiens, UniProt P21453). The assay is described as follows: S1P1 CRE-bla CHOK1 reporter assay (inhibition of Forskolin induced cAMP). It is filed as cell-based. The method in brief: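 Stable CRE-bla CHO-K1 clone expressing human S1P1, serum-starved (0.5% stripped serum) 18 h, then treated with compound (10-point curve) plus 2 μM forskolin for 4 h at 37 °C. β-lactamase FRET ratio (458/522 nm) read after 2 h substrate loading; EC50 for inhibition of forskolin-induced cAMP by non-linear regression.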
Chain of S1P1/EDG1 (P21453 whole entry): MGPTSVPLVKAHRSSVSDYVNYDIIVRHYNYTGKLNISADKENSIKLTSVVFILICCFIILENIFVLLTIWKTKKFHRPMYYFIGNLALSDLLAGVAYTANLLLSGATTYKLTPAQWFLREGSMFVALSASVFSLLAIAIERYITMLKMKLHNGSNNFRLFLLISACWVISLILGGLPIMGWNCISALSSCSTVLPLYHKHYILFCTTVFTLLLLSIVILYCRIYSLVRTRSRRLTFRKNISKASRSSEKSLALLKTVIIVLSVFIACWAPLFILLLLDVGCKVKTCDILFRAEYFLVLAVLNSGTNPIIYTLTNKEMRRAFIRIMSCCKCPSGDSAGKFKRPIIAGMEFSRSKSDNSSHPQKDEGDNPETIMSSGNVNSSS
For orientation: In a reporter assay the amount or activity of a reporter protein is the signal.

The mark [3] stands for this setting: agonist activity range, Table 2, read-out: S1P1 ACTIVITY

T1 sequence (Q9H228 whole entry, the tested form may be a part): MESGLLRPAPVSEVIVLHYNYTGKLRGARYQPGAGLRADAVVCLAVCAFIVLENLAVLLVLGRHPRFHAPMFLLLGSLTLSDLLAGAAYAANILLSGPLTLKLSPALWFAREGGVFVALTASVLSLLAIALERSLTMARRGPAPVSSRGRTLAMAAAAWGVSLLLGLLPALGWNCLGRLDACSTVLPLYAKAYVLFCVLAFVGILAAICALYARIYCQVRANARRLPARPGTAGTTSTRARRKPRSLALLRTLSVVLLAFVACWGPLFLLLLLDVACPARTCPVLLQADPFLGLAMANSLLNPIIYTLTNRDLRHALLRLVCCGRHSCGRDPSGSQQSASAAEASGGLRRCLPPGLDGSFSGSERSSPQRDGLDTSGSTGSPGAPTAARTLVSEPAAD

For the compound “(R)-N-((R)-4-(5-(3-cyano-4-isopropoxyphenyl)-1,3,4-thiadiazol-2-yl)-2,3-dihydro-1H-inden-1-yl)-3-(dimethylamino)pyrrolidine-1-carboxamide [Compound 56]”, in assay [1], the “% Lymphopenia after 24 h (0.2 mg/kg)” value was found to be 52%. Take “(R)-N-(4-(2-(3-cyano-4-isopropoxyphenyl)thiazol-5-yl)-2,3-dihydro-1H-inden-1-yl)sulfamide [Compound 166]”: the “ED50, estimated dose needed to produce 50% lymphopenia” value in assay [2] is given as 0.07 mg/kg. The “% Lymphopenia after 24 h (0.2 mg/kg)” value in assay [1] is 47%. With “(R)-2-(N-(4-(5-(3-cyano-4-isopropoxyphenyl)-1,3,4-thiadiazol-2-yl)-2,3-dihydro-1H-inden-1-yl)sulfamoyl)-N,N-dimethylacetamide [Compound 43]”, the EC50 at S1P5 was found to be 444 nM; at S1P1/EDG1 (Table 3, read-out: S1P1 agonist value (EC50)), 0.07 nM. Further, in assay [1], the “% Lymphopenia after 24 h (0.2 mg/kg)” value is 40%. Regarding `CC(C)Oc1ccc(-c2ncc(-c3cccc4c3CC[C@@H]4NCc3ncc[nH]3)s2)cc1C#N` [Compound 110, (S)-5-(5-(1-(((1H-imidazol-2-yl)methyl)amino)-2,3-dihydro-1H-inden-4-yl)thiazol-2-yl)-2-isopropoxybenzonitrile], the EC50 at S1P1/EDG1 (setting [3]) is 0.5 to 5 nM. Still for that read-out and setting: the value for `CC(C)Oc1ccc(-c2ncc(-c3cccc4c3CC[C@@H]4NC(=O)N3CC[C@@H](N(C)C)C3)s2)cc1C#N` [Compound 183] was 0.5 to 5 nM. As for `CC(C)Oc1ccc(-c2nnc(-c3cccc4c3CC[C@H]4NC(=O)N3CCCC3)s2)cc1C#N` [Compound 52], the EC50 at S1P1/EDG1 (setting [3]) is 0.05 to 0.5 nM. The same measure, in the same setting: the value for `CC(C)Oc1ccc(-c2nnc(-c3cccc4c3CC[C@@H]4NC(=O)N3CC(O)C3)s2)cc1C#N` [Compound 64] was 0.5 to 5 nM; that for `CC(C)Oc1ccc(-c2ncc(-c3cccc4c3CC[C@@H]4NC(=O)N3CC[C@H](N(C)C)C3)s2)cc1C#N` [Compound 184] was greater than 5 nM. Same read-out and setting: the value for `CC(C)Oc1ccc(-c2ncc(-c3cccc4c3CC[C@@H]4NS(N)(=O)=O)s2)cc1C#N` [Compound 167, (S)-N-(4-(2-(3-cyano-4-isopropoxyphenyl)thiazol-5-yl)-2,3-dihydro-1H -inden-1-yl)sulfamide] was 0.05 to 0.5 nM; that for `CC(C)Oc1ccc(-c2nnc(-c3cccc4c3CC[C@@H]4NS(=O)(=O)CCO)s2)cc1C#N` [Compound 45, (S)-N-(4-(5-(3-cyano-4-isopropoxyphenyl)-1,3,4-thiadiazol-2-yl)-2,3-dihydro-1H-inden-1-yl)-2-hydroxyethanesulfonamide] was 0.05 to 0.5 nM. The same measure, in the same setting: in the case of `CC(C)Oc1ccc(-c2nnc(-c3cccc4c3CCC4NCC(=O)N(C)C)s2)cc1C#N` (stereo in doubt) [Compound 22, (R)-2-((4-(5-(3-cyano-4-isopropoxyphenyl)-1,3,4-thiadiazol-2-yl)-2,3-dihydro-1H-inden-1-yl)amino)-N,N-dimethylacetamide hydrochloride] it was 0.05 to 0.5 nM; in that of `CC(C)Oc1ccc(-c2nnc(-c3cccc4c3CC[C@@H]4NC(=O)N(C)C)s2)cc1C#N` [Compound 67], 0.5 to 5 nM; in that of `CC(C)Oc1ccc(-c2ccc(-c3cccc4c3CCC4O)s2)cc1C#N` (stereo not drawn) [Compound 223, 5-(5-(1-hydroxy-2,3-dihydro-1H-inden-4-yl)thiophen-2-yl)-2-isopropoxybenzonitrile], 0.5 to 5 nM.

With `CC(C)Oc1ccc(-c2ncc(-c3cccc4c3CC[C@@H]4NC(=O)N3CCC[C@H](O)C3)s2)cc1C#N` [Compound 196], the EC50 on S1P1/EDG1 (setting [3]) is 0.5 to 5 nM. Consider `CC(C)Oc1ccc(-c2ncc(-c3cccc4c3CC[C@@H]4O)s2)cc1C#N` [Compound 70, (S)-5-(5-(1-hydroxy-2,3-dihydro-1H-inden-4-yl)thiazol-2-yl)-2-isopropoxybenzonitrile], for which the EC50 at S1P1/EDG1 (setting [3]) was 0.5 to 5 nM. Still for that read-out and setting: the value for `CC(C)Oc1ccc(-c2nnc(-c3cccc4c3CC[C@@H]4NCc3ncc[nH]3)s2)cc1C#N` [Compound 28, (S)-5-(5-(1-(((1H-imidazol-2-yl)methyl)amino)-2,3-dihydro-1H-inden-4-yl)-1,3,4-thiadiazol-2-yl)-2-isopropoxybenzonitrile] was 0.05 to 0.5 nM; that for `CC(C)Oc1ccc(-c2ncc(-c3cccc4c3CCC4NCCO)s2)cc1C#N` (stereo in doubt) [Compound 91, (R)-5-(5-(1-((2-hydroxyethyl)amino)-2,3-dihydro-1H-inden-4-yl)thiazol-2-yl) -2-isopropoxybenzonitrile] was 0.5 to 5 nM; that for `CC(C)Oc1ccc(-c2ncc(-c3cccc4c3CCC4O)s2)cc1C#N` (stereo in doubt) [Compound 69, (R)-5-(5-(1-hydroxy-2,3-dihydro-1H-inden-4-yl)thiazol-2-yl)-2-isopropoxy benzonitrile] was 0.05 to 0.5 nM. As for `CC(C)Oc1ccc(-c2ncc(-c3cccc4c3CC[C@@H]4NC(=O)CN)s2)cc1C#N` [Compound 77], the EC50 on S1P1/EDG1 (setting [3]) fell in the range of 0.05 to 0.5 nM. On the same count and under the same terms, the value for `CC(C)Oc1ccc(-c2ncc(-c3cccc4c3CC[C@@H]4NS(=O)(=O)CCN3CCC(O)CC3)s2)cc1C#N` [Compound 145] was greater than 5 nM; that for `CC(C)Oc1ccc(-c2ncc(-c3cccc4c3CC[C@@H]4NCCO)s2)cc1C#N` [Compound 92, (S)-5-(5-(1-((2-hydroxyethyl)amino)-2,3-dihydro-1H-inden-4-yl)thiazol-2-yl)-2-isopropoxybenzonitrile] was 0.5 to 5 nM; that for `CC(C)Oc1ccc(-c2ncc(-c3cccc4c3CCC4NCC(=O)N3CC[C@H](O)C3)s2)cc1C#N` (stereo in doubt) [Compound 102, 5-(5-((R)-1-((2-((S)-3-hydroxypyrrolidin-1-yl)-2-oxoethyl)amino)-2,3-dihydro-1H-inden-4-yl)thiazol-2-yl)-2-isopropoxybenzonitrile hydrochloride] was 0.05 to 0.5 nM. The same measure, in the same setting: in the case of `CC(C)Oc1ccc(-c2ncc(-c3cccc4c3CC[C@@H]4NC(=O)N3CC[C@H](N(C)C)C3)s2)cc1C#N` [Compound 182] it was 0.5 to 5 nM; in that of `CC(C)Oc1ccc(-c2nnc(-c3cccc4c3CCC4NCc3ncc[nH]3)s2)cc1C#N` (stereo in doubt) [Compound 29, (R)-5-(5-(1-(((1H-imidazol-2-yl)methyl)amino)-2,3-dihydro-1H-inden-4-yl)-1,3,4-thiadiazol-2-yl) -2-isopropoxybenzonitrile], 0.05 to 0.5 nM; in that of `CC(C)Oc1ccc(-c2ncc(-c3cccc4c3CC[C@@H]4NS(=O)(=O)CCN3CC[C@H](O)C3)s2)cc1C#N` [Compound 131], 0.5 to 5 nM. On to `CC(C)Oc1ccc(-c2ncc(-c3cccc4c3CCC4N3CCCCC3)s2)cc1C#N` (stereo not drawn) [Compound 213], for which the EC50 on S1P1/EDG1 (setting [3]) is 0.5 to 5 nM.

`COC(=O)CC1CCN(CCS(=O)(=O)N[C@H]2CCc3c(-c4cnc(-c5ccc(OC(C)C)c(C#N)c5)s4)cccc32)CC1` [Compound 147]: the EC50 at S1P1/EDG1 (setting [3]) lay within 0.5 to 5 nM. The same measure, in the same setting: in the case of `CC(C)Oc1ccc(-c2nnc(-c3cccc4c3CC[C@@H]4NCC(=O)N3CCCC3)s2)cc1C#N` [Compound 39] it was 0.05 to 0.5 nM; in that of `CC(C)Oc1ccc(-c2ncc(-c3cccc4c3CC[C@@H]4NC(=O)N3CCC[C@H](O)C3)s2)cc1C#N` [Compound 199], 0.05 to 0.5 nM.

In the case of `CC(C)Oc1ccc(-c2ncc(-c3cccc4c3CC[C@@H]4NCC(=O)N3CC[C@H](O)C3)s2)cc1C#N` [Compound 103], on S1P1/EDG1 (setting [3]), the EC50 lay within 0.05 to 0.5 nM. Same read-out and setting: the value for `CC(C)Oc1ccc(-c2ncc(-c3cccc4c3CC[C@@H]4NS(=O)(=O)CCN3CCCC3)s2)cc1C#N` [Compound 129] was greater than 5 nM; that for `COCC(=O)N[C@H]1CCc2c(-c3cnc(-c4ccc(OC(C)C)c(C#N)c4)s3)cccc21` [Compound 75] was 0.05 to 0.5 nM; that for `COCCN[C@H]1CCc2c(-c3nnc(-c4ccc(OC(C)C)c(C#N)c4)s3)cccc21` [Compound 19] was 0.5 to 5 nM.
